Test results: EP4678629A1, “IONIZABLE LIPID MOLECULE, PREPARATION METHOD THEREFOR AND USE THEREOF” (Maxirna (Shanghai) Pharmaceutical Co., Ltd., priority 2023, dated 2024)

How the values were obtained:
[1] = Encapsulation efficiency of the lipid nanoparticle (eGFP mRNA) by Ribogreen method; assay type: physicochemical; details: LNP encapsulating eGFP mRNA, ionizable lipid/DOPE/cholesterol/DMG-PEG2000 50/10/48.25/1.25 mol%, N/P 12
Description: (§1) The ionizable lipid compound and positive control 1 from Example I were dissolved in ethanol at a molar ratio of 50:10:48.25:1.25 with DOPE, cholesterol, and DMG-PEG2000 (all purchased from A.V.T (Shanghai) Pharmaceutical Co., Ltd.) to prepare an ethanol lipid solution. The enhanced green fluorescent protein (eGFP) mRNA was diluted in 20 mM citrate buffer (pH=6.1) to obtain an mRNA aqueous solution. By using a microfluidic device (Micro&Nano Biologics Co., Ltd., model: INano ™ L) mix ethanol lipid solution and mRNA aqueous solution in a volume ratio of 1:3 to prepare a lipid nanoparticle with a total lipid to mRNA N/P ratio of 12. The medium was replaced by ultrafiltration, ethanol was removed and volumed with DPBS. Finally, the lipid nanoparticle was filtered through a 0.2 µm sterile filter to obtain an LNP preparation encapsulating eGFP mRNA using ionizable lipid/DOPE/cholesterol/DMG-PEG2000 (50/10/48.25/1.25 mol%), with an mRNA content of 0.002 mg/ml-0.5 mg/mL.
(§2) Using Malvern Zetasizer Nano ZS (Malvern UK), the size and polydispersity index (PDI) of the lipid nanoparticle were determined by dynamic light scattering in 173° backscatter detection mode, and the encapsulation efficiency was measured by Ribogreen method.

[2] = Size and polydispersity index (PDI) of the lipid nanoparticle by dynamic light scattering; assay type: physicochemical; details: LNP encapsulating eGFP mRNA, ionizable lipid/DOPE/cholesterol/DMG-PEG2000 50/10/48.25/1.25 mol%, N/P 12; for Particle size: in nm (unit assumed)
Description: as §1, §2

DC2.4 cells = assay: In vitro transfection of cells with eGFP-mRNA lipid nanoparticle (LNP preparation), fluorescence imaging and flow cytometry; assay type: cell-based, mouse; details: eGFP positivity rate, DC2.4 cells, 200 ng of mRNA per well, after 24 hours
Excerpt: (§3) This example used mouse bone marrow-derived dendritic cells DC2.4 (purchased from Millipore) as the validation cell line for a lipid nanoparticle transfection experiment. DC2.4 cells adhered to the wall for growth. All operational steps of cell culture strictly followed the prescribed procedures, using sterile reagents for aseptic operations under a sterile workbench. The main operational steps involved were as follows: • 1) Cell recovery: the preserved cell cryopreservation solution was removed from the -80 °C freezer and immediately placed in a 37 °C water bath for rapid and continuous shaking, allowing it to completely melt within one minute. Fresh culture medium was added to a 15 mL centrifuge tube in advance, and the cell fluid was added to the centrifuge tube in a biosafety cabinet. A centrifuge tube of the same mass was taken, placed symmetrically in the centrifuge, and centrifuged at low speed for 5 minutes at 1200 rpm. After centrifugation, the upper clear liquid was removed, and an appropriate amount of culture medium was slowly added along the tube wall. After the cells were gently blown and dispersed evenly, the cell suspension was drawn and added to the prepared culture bottle. The state and distribution of cells in the early stage of recovery were observed under a microscope. The culture bottle was incubated in a 5% CO2 incubator at 37 °C, and the recovery time was recorded. • 2) Cell passaging: Under a microscope, if the cell density in the field of view reached 80%-90%, cells could be passaged and cultured. Adherent cells required trypsin digestion. In order to avoid residual serum in the culture medium reducing trypsin activity, the original culture medium was removed, and DPBS solution was added to wash once. After suctioning out the DPBS solution, trypsin was added to degrade the protein at the intercellular junction, thereby separating the cells and facilitating further cultivation. The mixture was gently shaken well and placed into the incubator for digestion for 2-3 minutes. After digestion was complete, an appropriate amount of culture medium was immediately added to the original culture dish to terminate digestion. Finally, a pipette was used to carefully blow off the cells and blow them until they were evenly dispersed, and then the cells were inoculated and subcultured in a certain proportion according to experimental requirements.
(§4) Transfection of DC2.4 cells • 1) DC2.4 cell recovery: the frozen DC2.4 cells were taken out from the -80 °C refrigerator and immediately put into a 37 °C water bath for rapid thawing. After melting, they were added to the preheated culture medium, and centrifuged at 1200 rpm for 5 minutes. The supernatant was discarded, and an appropriate amount of DMEM medium containing 10% FBS was added to resuspend the recovered DC2.4 cells, which were placed in a 37 °C, 5% CO2 incubator for activation culture. • 2) According to experimental requirements, DC2.4 cells were transfected into 24 well plates one day in advance. By counting cells, the number and viability of cells were recorded, and a cell suspension with 2 × 10^5 cells per well were taken. Then, a certain volume of DMEM medium containing 10% FBS was added and mixed evenly, wherein 1 mL was added per well for subsequent transfection experiments. • 3) After 24 hours, the culture medium was gently aspirated with a pipette 30 minutes in advance, and each well was washed with 1 mL of DPBS and aspirated. […] The mixture was placed in a 37 °C, 5% CO2 incubator for activation cultivation. • 6) After 24 hours, cell viability (%), eGFP positivity rate (%), and mean fluorescence intensity data were obtained through cell fluorescence imaging and flow cytometry.

[3] = as above; assay type: cell-based, mouse; details: mouse, dc2.4 cells, 200 ng of mRNA per well, after 24 hours; read-out: Cell viability, %
Excerpt: as §3, §4

Row | SMILES | Encapsulation rate, % [1] [%] | PDI [2] | Particle size [2] | Positive rate, % (DC2.4 cells) [%] | viability at 24 h [3] [%]
1 | CCCCC/C=C\C/C=C\CCCCCCCCOC(=O)CCCCCCCN(CCO)CCCN(CCCCCCCC(=O)OCCCCCCCC/C=C\C/C=C\CCCCC)CCCCCCCC(=O)OCCCCCCCC/C=C\C/C=C\CCCCC [Example 24, Di((9Z,12Z)-octadeca-9,12-dien-1-yl)8,8'-((3-((2-hydroxyethyl)(8-(((9Z,12Z)-octadeca-9,12-dien-1-yl)oxo)-8-oxooctyl)amino)propyl)azanediyl)dioctanoate] | 97.73 | 0.15 | – | 92.27 | 76
2 | CCCCCC/C=C\COC(=O)CCCCCN(CCO)CCCN(CCCCCC(=O)OC/C=C\CCCCCC)CCCCCC(=O)OC/C=C\CCCCCC [Example 25, Di((Z)-non-2-en-1-yl)6,6'-((3-((2-hydroxyethyl)(6-(((Z)-non-2-en-1-yl)oxo)-6-oxohexyl)amino)propyl)azanediyl)dihexanoate] | 98.27 | 0.17 | – | 94.29 | 76.6
3 | CCCCCCCCCCCCCOC(=O)CCCCCN(CCO)CCCN(CCCCCC(=O)OCCCCCCCCCCCCC)CCCCCC(=O)OCCCCCCCCCCCCC [Example 26, Ditridecyl 6,6'-((3-((2-hydroxyethyl)(6-oxo-6-(tridecyloxy)hexyl)amino)propyl)azanediyl)dihexanoate] | 99.66 | 0.09 | 95.80 | 95.84 | 98.1
4 | CCCCCCCCCCCOC(=O)CCCCCN(CCCO)CCCN(CCCCCC(=O)OCCCCCCCCCCC)CCCCCC(=O)OCCCCCCCCCCC [Example 27, Diundecyl 6,6'-((3-((3-hydroxypropyl)(6-oxo-6-(undecyloxy)hexyl)amino)propyl)azanediyl)dihexanoate] | 99.65 | 0.12 | 88.43 | 97.36 | 98.2
5 | CCCCCCCCCCCOC(=O)CCCCCN(CCCCO)CCCN(CCCCCC(=O)OCCCCCCCCCCC)CCCCCC(=O)OCCCCCCCCCCC [Example 28, Diundecyl 6,6'-((3-((4-hydroxybutyl)(6-oxo-6-(undecyloxy)hexyl)amino)propyl)azanediyl)dihexanoate] | 99.47 | 0.17 | – | 97.51 | 92.9
6 | CCCCCCCCCCCCCOC(=O)CCCCCCCN(CCCO)CCCN(CCCCCCCC(=O)OCCCCCCCCCCCCC)CCCCCCCC(=O)OCCCCCCCCCCCCC [Example 29] | 99.55 | 0.16 | – | 95.33 | 96.7
7 | CCCCCCCCCCCCCOC(=O)CCCCCN(CCCO)CCCN(CCCCCC(=O)OCCCCCCCCCCCCC)CCCCCC(=O)OCCCCCCCCCCCCC [Example 30, 6,6'-((3-((3-hydroxypropyl)(6-oxo-6-(tridecyloxy)hexyl)amino)propyl)azadiyl)ditridecyl dihexanoate] | 99.66 | 0.09 | – | 96.41 | 96.9
8 | CCCCCCCCCCCCCOC(=O)CCCCCN(CCCCO)CCCN(CCCCCC(=O)OCCCCCCCCCCCCC)CCCCCC(=O)OCCCCCCCCCCCCC [Example 31, 6,6'-((3-((4-hydroxybutyl)(6-oxo-6-(tridecyloxy)hexyl)amino)propyl)azadiyl)ditridecyl dihexanoate] | 99.36 | 0.15 | 84.05 | 97.43 | 94.4

Now from value to compound, other results behind:

Row | Encapsulation rate, % [1] [%] | PDI [2] | Particle size [2] | SMILES | Positive rate, % (DC2.4 cells) [%] | viability at 24 h [3] [%]
9 | 99.30 | 0.13 | 83.34 | CCCCCCCCCCCOC(=O)CCCCCCN(CCO)CCCN(CCCCCCC(=O)OCCCCCCCCCCC)CCCCCCC(=O)OCCCCCCCCCCC [Example 32] | 95.28 | 96.6
10 | 98.96 | 0.13 | – | CCCCCCCCCCCCCOC(=O)CCCCCCN(CCO)CCCN(CCCCCCC(=O)OCCCCCCCCCCCCC)CCCCCCC(=O)OCCCCCCCCCCCCC [Example 33] | 95.18 | 96.4
11 | 99.39 | 0.16 | 82.74 | CCCCCCCCCCCCCOC(=O)CCCCCCN(CCCO)CCCN(CCCCCCC(=O)OCCCCCCCCCCCCC)CCCCCCC(=O)OCCCCCCCCCCCCC [Example 34] | 93.19 | 95
12 | 99.50 | 0.12 | 92.18 | CCCCCCCCCCCCCOC(=O)CCCCCCN(CCCCO)CCCN(CCCCCCC(=O)OCCCCCCCCCCCCC)CCCCCCC(=O)OCCCCCCCCCCCCC [Example 35] | 98.59 | 97.2
13 | 99.39 | 0.16 | 89.30 | CCCCCCCCCCCOC(=O)CCCCCCN(CCCO)CCCN(CCCCCCC(=O)OCCCCCCCCCCC)CCCCCCC(=O)OCCCCCCCCCCC [Example 36] | 93.6 | 94.2
14 | 99.26 | 0.15 | 77.57 | CCCCCCCCCCCOC(=O)CCCCCCN(CCCCO)CCCN(CCCCCCC(=O)OCCCCCCCCCCC)CCCCCCC(=O)OCCCCCCCCCCC [Example 37] | 89.37 | 96.6
15 | 97.58 | 0.13 | 89.31 | CCCCCCCCCCCCCOC(=O)CCCCN(CCO)CCCN(CCCCC(=O)OCCCCCCCCCCCCC)CCCCC(=O)OCCCCCCCCCCCCC [Example 39, Ditridecyl 5,5'-((3-((2-hydroxyethyl)(5-oxo-5-(tridecyloxy)pentyl)amino)propyl)azadiyl)dipentanoate] | 91.26 | 96.9
16 | 99.29 | 0.14 | 63.23 | CCCCCCCCCCCCCOC(=O)CCCCN(CCCO)CCCN(CCCCC(=O)OCCCCCCCCCCCCC)CCCCC(=O)OCCCCCCCCCCCCC [Example 40] | 99.14 | 97.7
17 | 96.67 | 0.13 | 71.17 | CCCCCCCCCCCCCOC(=O)CCCCN(CCCCO)CCCN(CCCCC(=O)OCCCCCCCCCCCCC)CCCCC(=O)OCCCCCCCCCCCCC [Example 41, Ditridecyl 5,5'-((3-((4-hydroxybutyl)(5-oxo-5-(tridecyloxy)pentyl)amino)propyl)azadiyl)dipentanoate] | 96.42 | 97.2
